In data set [1] the target is EcGUS (Escherichia coli GUS) (Escherichia coli, UniProt P05804). The experiment in a line: biochemical.
Another data set has as its target T1, HsGUS (human GUS) (Homo sapiens, UniProt P08236).
T1 construct: HsGUS was prepared as described[37]; made in house
T1 sequence (P08236 23-651): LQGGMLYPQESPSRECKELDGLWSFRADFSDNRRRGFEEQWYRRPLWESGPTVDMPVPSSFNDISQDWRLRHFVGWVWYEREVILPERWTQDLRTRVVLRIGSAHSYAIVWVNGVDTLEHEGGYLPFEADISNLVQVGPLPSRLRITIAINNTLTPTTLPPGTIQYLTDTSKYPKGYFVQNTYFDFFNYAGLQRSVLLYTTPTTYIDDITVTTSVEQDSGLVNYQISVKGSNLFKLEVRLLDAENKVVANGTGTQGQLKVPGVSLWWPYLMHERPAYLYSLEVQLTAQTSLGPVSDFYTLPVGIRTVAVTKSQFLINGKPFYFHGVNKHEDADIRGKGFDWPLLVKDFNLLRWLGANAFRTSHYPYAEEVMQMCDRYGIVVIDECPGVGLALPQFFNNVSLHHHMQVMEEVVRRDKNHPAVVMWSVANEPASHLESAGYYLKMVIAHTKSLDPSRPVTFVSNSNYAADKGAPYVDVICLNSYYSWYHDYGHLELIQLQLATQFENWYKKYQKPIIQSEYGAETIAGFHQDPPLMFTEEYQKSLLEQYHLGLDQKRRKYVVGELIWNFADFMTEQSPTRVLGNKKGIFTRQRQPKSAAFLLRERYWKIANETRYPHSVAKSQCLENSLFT
The experiment in a line: GUS inhibition assay, hydrolysis of 4-methylumbelliferyl-β-glucuronide, HsGUS. It is filed as biochemical. As to conditions: HsGUS; at 1 mM; read-out: percentage of inhibition.

Data set [2] concerns BALB/c mice. The experiment in a line: Colon histology (hematoxylin and eosin) after oral gavage. It is filed as in vivo, mouse. As to conditions: female BALB/c mice; oral gavage for 5 days; 3 at 37.5 mg per kg body weight, ASN03273363 at 65 mg.
Data set [3] relates to BALB/c mice. The experiment in a line: In vivo diarrhea test (CPT-11). Details: species or system mouse; key to Diarrhea Score: 0: Normal stool; 1: Slight perianal staining of the coat; 2: Moderate perianal staining of the coat; 3: Watery mucosal-infused stool with severe perianal staining of the coat; Death.
A further data set relates to patients. The note with it: patients taking irinotecan; cited from earlier work.
The mark [4] stands for this setting: Day 6, individual mice (Box 1-8).
Setting [5] is: Day 7, individual mice (Box 1-8).
Setting [6] is: Day 8, individual mice (Box 1-8).
[7] abbreviates: Day 9, individual mice (Box 1-8).
The mark [8] stands for this setting: Day 10, individual mice (Box 1-8).
Where [9] appears, read: Day 11, individual mice (Box 1-8).
The mark [10] stands for this setting: Day 12, individual mice (Box 1-8).

Where “and” joins values, the source holds several entries; their conditions need not be identical. Identical values can stand only once. Entries after “also recorded” stand apart in the source; their conditions may differ.

Chain of EcGUS (Escherichia coli GUS) (P05804 whole entry): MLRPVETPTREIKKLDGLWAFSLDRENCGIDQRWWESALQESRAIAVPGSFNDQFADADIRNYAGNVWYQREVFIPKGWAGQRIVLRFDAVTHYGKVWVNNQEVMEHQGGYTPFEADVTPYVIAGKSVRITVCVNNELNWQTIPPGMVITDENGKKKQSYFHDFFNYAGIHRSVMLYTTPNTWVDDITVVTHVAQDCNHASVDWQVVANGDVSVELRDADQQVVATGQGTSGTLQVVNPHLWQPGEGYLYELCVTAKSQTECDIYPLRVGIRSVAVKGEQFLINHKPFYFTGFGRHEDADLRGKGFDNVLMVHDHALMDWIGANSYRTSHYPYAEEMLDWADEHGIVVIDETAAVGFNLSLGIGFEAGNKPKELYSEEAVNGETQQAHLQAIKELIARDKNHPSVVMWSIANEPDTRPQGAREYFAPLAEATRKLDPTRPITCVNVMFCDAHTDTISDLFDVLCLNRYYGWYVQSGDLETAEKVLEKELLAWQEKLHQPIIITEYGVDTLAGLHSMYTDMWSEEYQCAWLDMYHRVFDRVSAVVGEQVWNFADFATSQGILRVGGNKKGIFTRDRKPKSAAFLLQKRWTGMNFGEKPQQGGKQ

Usually IC50 stands for the point on the concentration scale where inhibition reaches its midpoint. One may read the inhibition as the relative decrease from the control value, in per cent. As for `CCCCCC[C@@H]1NC[C@@H](O)[C@H](O)[C@H]1CO` [Compound 12], inhibition in data set [1] was half-maximal at 24.9 µM (IC50). The inhibition at 1000 µM on HsGUS (human GUS) worked out at 0.6%.
`CCCCCCCCC[C@@H]1NC[C@@H](O)[C@H](O)[C@H]1CO` [Compound 13] returned an IC50 in data set [1] of 3.6 µM. In addition, the inhibition at 1000 µM on HsGUS (human GUS) is -0.5%.
`CCC[C@@H]1NC[C@@H](O)[C@H](O)[C@H]1CO` [Compound 11]: the midpoint of inhibition in data set [1], the IC50, lay at 272 µM. For the same compound, at HsGUS (human GUS), the inhibition at 1000 µM stood at 4.5%.
Take `CCOc1ccc(NC(=S)N(CCO)Cc2cc3cc(C)cc(C)c3[nH]c2=O)cc1` [ASN03273363, reference compound]: the “health of the epithelial layer and intestinal glandular structure (hematoxylin and eosin staining)” value in the data set on BALB/c mice [2] is “neither compound affected the health of the epithelial layer or the intestinal glandular structure”.
Turning to `CCCCCC[C@@H]1NC[C@@H](O)[C@H](O)[C@H]1C(=O)O` [Inhibior 3], the “Diarrhea Score, mean” value with BALB/c mice [3] (Day 6, group mean) was determined as 0.0; with BALB/c mice [3] (Day 7, group mean) it was 0.0; in the data set with BALB/c mice [3] (Day 8, group mean), 0.0; with BALB/c mice [3] (Day 9, group mean), 0.0; in the data set with BALB/c mice [3] (Day 10, group mean), 0.0; with BALB/c mice [3] (Day 11, group mean) it was 0.0. Besides, the “Diarrhea Score, mean” value with BALB/c mice [3] (Day 12, group mean) was found to be 0.0. In addition, the “Diarrhea Score” value in the data set on BALB/c mice [3] (setting [4]), with BALB/c mice [3] (setting [5]), with BALB/c mice [3] (setting [6]), with BALB/c mice [3] (setting [7]), in the data set with BALB/c mice [3] (setting [8]) and in the data set on BALB/c mice [3] (setting [9]) was 0 in each case. In the data set with BALB/c mice [3] (setting [10]), the “Diarrhea Score” value was 0.
As to `CCc1c2c(nc3ccc(OC(=O)N4CCC(N5CCCCC5)CC4)cc13)-c1cc3c(c(=O)n1C2)COC(=O)[C@]3(O)CC` [CPT-11, Irinotecan], in the data set with patients, the “patients at high risk of death owing to neutropenia” value is recorded as ~ 3.5%. Also, the patients becoming dehydrated in the data set with patients is ~ 10%. In addition, in the data set with patients, the “patients suffering from severe delayed diarrhea” value was 87%. For the same compound, the diarrhea result with BALB/c mice [3] (BALB/c mice, CPT-11 only, 30 mg per kg daily, 10 days) is given as “developed diarrhea on day 7, until they reached a peak on day 11; also recorded: severe diarrhea from days 7–11”. Besides, the “Diarrhea Score, mean” value with BALB/c mice [3] (Day 6, group mean) is recorded as 0.0; with BALB/c mice [3] (Day 7, group mean), 0.0; with BALB/c mice [3] (Day 8, group mean), 0.25; in the data set on BALB/c mice [3] (Day 9, group mean) it was 0.429; in the data set with BALB/c mice [3] (Day 10, group mean), 1.6; with BALB/c mice [3] (Day 11, group mean), 2.3. In addition, the “Diarrhea Score, mean” value in the data set with BALB/c mice [3] (Day 12, group mean) is recorded as 2.1. Moreover, the “Diarrhea Score” value in the data set on BALB/c mice [3] (setting [4]) is 0; in the data set with BALB/c mice [3] (setting [5]) it was 0; in the data set on BALB/c mice [3] (setting [6]), 0 and 2; in the data set on BALB/c mice [3] (setting [7]), 0 and D and 3; in the data set with BALB/c mice [3] (setting [8]) it was 0 and D and 3 and 2; in the data set on BALB/c mice [3] (setting [9]), 1 and D and 3 and 2. Further, the “Diarrhea Score” value in the data set with BALB/c mice [3] (setting [10]) is 3 and 0 and D. Also, the “Mean ± SEM of Diarrhea score” value in the data set with BALB/c mice [3] (day 9, Welch's unpaired t-test table) is 0.0 ± 0.0 N=7; with BALB/c mice [3] (day 10, Welch's unpaired t-test table), 0.0 ± 0.0 N=7; in the data set on BALB/c mice [3] (day 11, Welch's unpaired t-test table), 0.2857 ± 0.1844 N=7; in the data set with BALB/c mice [3] (day 12, Welch's unpaired t-test table), 0.3333 ± 0.2108 N=6.

Values taken from paper PMC7933434, “Entropy-driven binding of gut bacterial β-glucuronidase inhibitors ameliorates irinotecan-induced toxicity” (Communications Biology, 2021).
